US20260256751A1, “COMBINATION OF BETA-2-ADRENERGIC RECEPTOR AGONISTS AND GLP-1 RECEPTOR AGONISTS FOR USE IN TREATING HYPERGLYCAEMIA” (ATROGI AB, priority 2023, published 2026)

How the values were obtained:
[1] = system: differentiated L6-myotubes; assay: Glucose uptake screen (Biological example 1 of WO 2019/053427); format: cell-based; conditions: compound at 10 μM, activity relative to isoproterenol at 10 μM; for Emax at 10 µM: read-out: Biological example 1 of WO 2019/053427 (GU)
Outline: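 Uptake was read out as ^3H-2-deoxyglucose (50 nM, 10 min) radioactivity in NaOH lysates. Beforehand, overnight-starved, differentiated L6 myotubes received compound at 1×10^−5 M with ICI-118551 present for 1 h 40 min, followed by fresh agonist for a further 20 min in glucose-free medium.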

[2] = system: differentiated L6-myotubes; assay: cAMP production relative to isoprenaline (Biological example 2 of WO 2019/053427); format: cell-based; conditions: compound at 10 μM, activity relative to isoproterenol at 10 μM; for Emax at 10 µM: 0.25 h
Outline: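 Values are cAMP levels relative to isoprenaline at equal concentration (final 1×10^−5 M for both). Stimulation lasted 15 min in differentiated L6 myotubes, using HBSS buffer (pH 7.4) containing 1 mM IBMX, 5 mM HEPES and 1% BSA.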

SMILES | Emax at 10 µM [1] | Emax at 10 µM [2] | Biological example 1 of WO 2019/053427 (GU) [1] | Biological example of WO 2019/053427 (cAMP) [2]
CCCCCCNCC(O)c1ccc(O)cc1 (centres unmarked) [Compound 17, 2-(hexylamino)-1-(p-hydroxyphenyl)-1-ethanol] | 25 to 50% | < 25% | – | –
O[C@@H](CNCCC[C@H]1CC[C@H](OCc2ccccc2)CC1)c1cccc(F)c1 [Compound 278, (R)-1-(m-fluoropheny)-2-{3-[(1r,4S)-4-(benzyloxy)cyclohexyl]pro-pylamino}-1-ethanol] | 25 to 50% | < 25% | – | –
CC(=O)N[C@H]1CC[C@@H](CNC[C@H](O)c2cncc(F)c2)CC1 [Compound 310, N-[(1S,4s)-4-{[(R)-2-(5-fluoro-3-pyridyl)-2-hydroxyethylamino]methyl}cyclohexyl]acetamide] | 25 to 50% | < 25% | – | –
CCC[C@@H]1CC[C@H]([C@H](O)c2cccc(Cl)c2)N1 [Compound 141, (R)-[(2R,5R)-5-propyl-2-pyrrolidinyl](m-chlorophenyl)methanol] | 50 to 75% | < 25% | – | –
CC12CCC([C@@H](O)c3ccncc3F)(CC1)N2 [Compound 253, (S)-(3-fluoro-4-pyridyl)(4-methyl-7-azabicyclo[2.2.1]hept-1-yl)methanol] | < 25% | < 25% | – | –
CC(=O)N[C@H]1CC[C@H](C(C)(C)NC[C@H](O)c2cccc(F)c2)CC1 [Compound 386, N-[(1R,4r)-4-{1-[(R)-2-(m-fluorophenyl)-2-hydroxyethylamino]-1-methylethyl}cyclohexyl]acetamide] | > 75% | < 25% | – | –
CCC[C@@H]1CC[C@H]([C@H](O)c2cncc(F)c2)N1 [Compound 161] | – | – | + (between 50 and 25%) | − (less than 25%)
CC12CC(C1)[C@@H]([C@H](O)c1ccccc1F)N2 [Compound 213, (R)-{(S)-1-methyl-2-azabicyclo[2.1.1]hex-3-yl}(o-fluorophenyl)methanol] | > 75% | < 25% | – | –
CC(=O)N(C)[C@H]1CC[C@H](CC(C)(C)NC[C@H](O)c2cccc(F)c2)CC1 [Compound 491, N-[(1R,4r)-4-{2-[(R)-2-(m-fluorophenyl)-2-hydroxyethylamino]-2-methylpropyl}cyclohexyl]-N-methylacetamide] | > 75% | < 25% | – | –
CC12CCC([C@H](O)c3cccc(Cl)c3)(CC1)N2 [Compound 197, (R)-(m-chlorophenyl)(4-methyl-7-azabicyclo[2.2.1]hept-1-yl)methanol] | > 75% | < 25% | – | –
O[C@@H](CNCC[C@H]1CC[C@@H](O)CC1)c1cccc(F)c1 [Compound 297, (R)-1-(m-fluorophenyl)-2-{2-[(1s,4S)-4-hydroxycyclohexyl]ethylamino}-1-ethanol] | 50 to 75% | < 25% | – | –
CCC[C@H](C)NC[C@H](O)c1cccc(F)c1 [Compound 51, (R)-2-[(S)-1-methylbutylamino]-1-(m-fluorophenyl)-1-ethanol] | > 75% | < 25% | – | –
CC(C)(CC[C@H]1CC[C@H](NS(C)(=O)=O)CC1)NC[C@H](O)c1cncc(F)c1 [Compound 362, (R)-2-{1,1-dimethyl-3-[(1r,4R)-4-(mesylamino)cyclohexyl]propylamino}-1-(5-fluoro-3-pyridyl)-1-ethanol] | 50 to 75% | < 25% | – | –
CCCCNCC(O)c1ccc(F)c(N)c1 (centres unmarked) [Compound 44, 1-(3-amino-4-fluorophenyl)-2-(butylamino)-1-ethanol] | 50 to 75% | < 25% | – | –
CC1(C)CCC[C@@H]([C@H](O)c2ccccc2F)N1 [Compound 193, (R)-[(S)-6,6-dimethyl-2-piperidyl](o-fluorophenyl)methanol] | > 75% | 25 to 50% | – | –
O[C@H](c1cccc(F)c1)C12CCC(COc3ccc(Cl)cc3)(CC1)N2 [Compound 441, (R)-{4-[(p-chlorophenoxy)methyl]-7-azabicyclo[2.2.1]hept-1-yl}(m-fluorophenyl)methanol] | > 75% | < 25% | – | –
